Assay results as given in patent US10780101B2, “Amide derivatives of squalamine for the treatment of infections” (VIRBAC, priority 2016, dated 2020).
In brackets after ≈: the same amount, converted by molar mass. Marks after values point to notes of the source that are not given here.

Legend:
[1] = tested on: P. aeruginosa Animal (1051575); test: MIC determination, P. aeruginosa animal (1051575); format: cell-based; conditions: Pseudomonas aeruginosa; Gram-negative; Mueller-Hinton medium, 24 h at 37° C.
How it was run: (§1)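 Broth microdilution in Mueller-Hinton medium; compounds from 5 mg/mL stock in DMSO/methanol (50/50), twofold serial dilutions, inoculum adjusted to OD 0.01. Plates incubated 24 h at 37 °C, humid atmosphere; OD read at 620 nm to derive MIC, duplicates.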

[2] = tested on: P. aeruginosa Human ATCC 27853; test: MIC determination, P. aeruginosa human ATCC 27853; format: cell-based; conditions: Pseudomonas aeruginosa, ATCC27853; Gram-negative; Mueller-Hinton medium, 24 h at 37° C.
How it was run: as §1

[3] = tested on: P. aeruginosa (1051575); test: Potentiation of erythromycin activity (combination MIC); format: cell-based, Pseudomonas aeruginosa; conditions: erythromycin 2 μg/mL; concentration of compound required to restore antibiotic activity
How it was run: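 Broth microdilution with wells seeded at OD 0.01 (about 5×10^6 bacteria/well). The test compound was serially diluted against each antibiotic held at a final 2 μg/mL. After 24 h at 37 °C in humid air, live bacteria were stained pink with nitro tetrazolium iodide; the value is the compound concentration restoring antibiotic activity.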

[4] = tested on: P. aeruginosa (1051575); test: Potentiation of chloramphenicol activity (combination MIC); format: cell-based, Pseudomonas aeruginosa; conditions: concentration of compound required to restore antibiotic activity
[5] = tested on: C. albicans; test: Antifungal activity, cascade microdilution; format: cell-based; conditions: Candida albicans, 24 h, read-out: IC50 (μg/mL) C. albicans

Which results are given for `CC(C)NC(=O)CC[C@@H](C)[C@H]1CCC2C3CCC4C[C@@H](NCCCNCCCN)CC[C@]4(C)C3C[C@H](O)[C@@]21C` (stereo partly drawn) [Compound (2), 3β-norspermidino-N-isopropyldeoxycholamide]?
MIC [1]: 14 µg/mL (≈ 25.6 µM); MIC [2]: 28 µg/mL (≈ 51.2 µM); MIC P. aeruginosa (1051575) compound + erythromycin [3]: 3* μg/mL; MIC P. aeruginosa (1051575) compound + chloramphenicol ([4]; chloramphenicol 2 μg/mL): 0.9 µg/mL; MIC P. aeruginosa (1051575) compound + chloramphenicol ([4]; chloramphenicol 4 μg/mL): 0.9 µg/mL

Which MIC [1] does the source give for `CC(C)NC(=O)CC[C@@H](C)[C@H]1CCC2C3C(C[C@H](O)[C@@]21C)[C@@]1(C)CC[C@H](NCCCNCCCN)CC1C[C@H]3O` (stereo partly drawn) [(5), 3β-norspermidino-N-isopropylcholamide] here?
Its MIC is 64 µg/mL (≈ 114 µM).

What about the IC50 [5] of the same compound?
Its IC50 is 4 µg/mL (≈ 7.11 µM).

And the MIC [2]?
The MIC was 64 µg/mL (≈ 114 µM).

And the “MIC P. aeruginosa (1051575) compound + erythromycin” value [3]?
The value was 32* μg/mL.

What about the “MIC P. aeruginosa (1051575) compound + chloramphenicol” value ([4]; chloramphenicol 2 μg/mL) of the same compound?
The value was 4 µg/mL.

And the “MIC P. aeruginosa (1051575) compound + chloramphenicol” value ([4]; chloramphenicol 4 μg/mL)?
Its value is 2 µg/mL.

For `CC(C)NC(=O)CC[C@@H](C)[C@H]1CCC2C3C(CC[C@@]21C)[C@@]1(C)CC[C@H](NCCCNCCCN)CC1C[C@H]3O` (stereo partly drawn) [(8), 3β-norspermidino-N-isopropylchenodeoxycholamide], which MIC [1] is on record?
Its MIC is 27 µg/mL (≈ 49.4 µM).

And the IC50 [5]?
The IC50 was 1 µg/mL (≈ 1.83 µM).

What about the MIC [2] of the same compound?
Its MIC is 54 µg/mL (≈ 98.7 µM).

And the “MIC P. aeruginosa (1051575) compound + erythromycin” value [3]?
The value was 27 µg/mL.

And the “MIC P. aeruginosa (1051575) compound + chloramphenicol” value ([4]; chloramphenicol 4 μg/mL)?
Its value is 2 µg/mL.

`CC(C)NC(=O)CC[C@@H](C)[C@H]1CCC2C3C(CC[C@@]21C)[C@@]1(C)CC[C@H](NCCCNCCCNCCCN)CC1C[C@H]3O` (stereo partly drawn) [(7), 3β-norspermino-N-isopropylchenodeoxycholamide] was tested. Which MIC [1] did it give?
Its MIC is 15 µg/mL (≈ 24.8 µM).

What about the MIC [2] of the same compound?
The MIC was 30 µg/mL (≈ 49.7 µM).

What about the “MIC P. aeruginosa (1051575) compound + erythromycin” value [3] of the same compound?
The value was 15 µg/mL.

And the “MIC P. aeruginosa (1051575) compound + chloramphenicol” value ([4]; chloramphenicol 4 μg/mL)?
The value was 2 µg/mL.

`CC(C)NC(=O)CC[C@@H](C)[C@H]1CCC2C3C(CC[C@@]21C)[C@@]1(C)CC[C@H](NCCCN(C)CCCN)CC1C[C@H]3O` (stereo partly drawn) [(27), 3β-(bis(3-aminopropyl)methylamine)-N-isopropylchenodeoxycholamide] was tested. Which MIC [1] did it give?
Its MIC is 128 µg/mL (≈ 228 µM).

And the IC50 [5]?
The IC50 was 2 µg/mL (≈ 3.57 µM).

What about the MIC [2] of the same compound?
The MIC was 32 µg/mL (≈ 57 µM).

What about the “MIC P. aeruginosa (1051575) compound + erythromycin” value [3] of the same compound?
Its value is 28 µg/mL.

What about the “MIC P. aeruginosa (1051575) compound + chloramphenicol” value ([4]; chloramphenicol 2 μg/mL) of the same compound?
Its value is 4 µg/mL.

And the “MIC P. aeruginosa (1051575) compound + chloramphenicol” value ([4]; chloramphenicol 4 μg/mL)?
Its value is 1 µg/mL.

For `CC(C)NC(=O)CC[C@@H](C)[C@H]1CCC2C3C(CC[C@@]21C)[C@@]1(C)CC[C@H](NCCCNCCCN)CC1C[C@@H]3O` (stereo partly drawn) [(15), 3β-norspermidino-N-isopropylursodeoxycholamide], which MIC [1] is on record?
The MIC was 112 µg/mL (≈ 205 µM).

And the IC50 [5]?
The IC50 was 14 µg/mL (≈ 25.6 µM).

What about the MIC [2] of the same compound?
The MIC was 56 µg/mL (≈ 102 µM).

What about the “MIC P. aeruginosa (1051575) compound + erythromycin” value [3] of the same compound?
The value was 55 µg/mL.

What about the “MIC P. aeruginosa (1051575) compound + chloramphenicol” value ([4]; chloramphenicol 2 μg/mL) of the same compound?
The value was 7 µg/mL.

And the “MIC P. aeruginosa (1051575) compound + chloramphenicol” value ([4]; chloramphenicol 4 μg/mL)?
Its value is 2 µg/mL.

With `CC(C)NC(=O)CC[C@@H](C)[C@H]1CCC2C3CCC4C[C@@H](NCCCN(C)CCCN)CC[C@]4(C)C3C[C@H](O)[C@@]21C` (some centres unmarked) [(25)] as the compound, how does the MIC [1] read?
The MIC was 28 µg/mL (≈ 49.9 µM).

What about the MIC [2] of the same compound?
The MIC was 28 µg/mL (≈ 49.9 µM).

And the “MIC P. aeruginosa (1051575) compound + erythromycin” value [3]?
The value was 28 µg/mL.

What about the “MIC P. aeruginosa (1051575) compound + chloramphenicol” value ([4]; chloramphenicol 4 μg/mL) of the same compound?
The value was 2 µg/mL.

How did the MIC [1] turn out when `CC(C)NC(=O)CC[C@@H](C)[C@H]1CCC2C3C(CC[C@@]21C)[C@@]1(C)CC[C@H](NCCCNCCCCNCCCN)CC1C[C@@H]3O` (stereo partly drawn) [Compound (35), 3β-spermino-N-isopropylursodeoxycholamide] was run?
The MIC was 64 µg/mL (≈ 104 µM).

What about the IC50 [5] of the same compound?
The IC50 was 1 µg/mL (≈ 1.62 µM).

What about the MIC [2] of the same compound?
The MIC was 32 µg/mL (≈ 51.8 µM).

And the “MIC P. aeruginosa (1051575) compound + erythromycin” value [3]?
Its value is 32 µg/mL.

And the “MIC P. aeruginosa (1051575) compound + chloramphenicol” value ([4]; chloramphenicol 4 μg/mL)?
The value was 2 µg/mL.
